# According to US12611400B2, “Solid lipid nano-composition containing berberine and cinnamonaldehyde effective in treating diabetes, dyslipidemia, and method of preparing the same” (priority 2020, dated 2026):
# Tested on: white mouse models of P-407-induced dyslipidemia
# Test: Dyslipidemia regulation effects in P-407-induced endogenous dyslipidemia model in white mice
# Format: in vivo
# Conditions: oral 100 mg/kg, 7 days; for Total cholesterol: Reduction in comparison with the model batch: 100 mg/kg
# Protocol: The test on white mice was divided into 5 batches, each batch having 10 animals. The batches were subjected to injection and oral administration as follows: • Batch 1 (biological control): 0.9% saline was intraperitoneally injected at a volume of 0.1 mL/10 g mouse body weight and 0.2 mL/10 g distilled water was orally administered. • Batch 2 (model): 2% P-407 solution was intraperitoneally injected at 200 mg/kg (0.1 mL/10 g), and 0.2 mL/10 g distilled water was orally administered. • Batch 3 (positive control): 2% P-407 solution was intraperitoneally injected at 200 mg/kg (0.1 mL/10 g), and 100 mg/kg (0.2 mL/10 g) atorvastatin was orally administered. • Batch 4: 2% P-407 solution was intraperitoneally injected at 200 mg/kg (0.1 mL/10 g), the composition was orally administered at 0.24 g/kg/day (equivalent to the clinical intended dose), at 0.2 mL/10 g. • Batch 5: 2% P-407 solution was intraperitoneally injected at 200 mg/kg dose (0.1 mL/10 g), the composition was orally administered at dosage 0.72 g/kg/day (3 times as much as the clinical intended dose), at 0.2 mL/10 g.
# White mice were subjected to oral administration of distilled water and the sample drug in 7 continuous days before the intraperitoneal injection with P-407 solution. After P-407 injection, the mice were left to starve completely but were free to drink water. After 24 hours from the P-407 injection, all of the mice received carotid arterial blood sampling for TG, TC, and HDL-C quantitative testing. Non-HDL-C levels were calculated based on the following formula: Non-HDL-C=TC−HDL-C (mmol/L) Test Results Total Cholesterol Levels
# [1] = white mouse blood, 24 h after P-407 200 mg/kg i.p., n = 10
smiles,measurement,setting,value
"CC(C)c1c(C(=O)Nc2ccccc2)c(-c2ccccc2)c(-c2ccc(F)cc2)n1CC[C@@H](O)C[C@@H](O)CC(=O)O [Atorvastatin, atorvastatin]",Non-HDL-cholesterol level,"Non-HDL-C=TC−HDL-C, white mouse blood, 24 h after P-407, n = 10",6.08 ± 0.88 mmol/L
same,Non-HDL-cholesterol: Reduction in comparison with the model,P-407 model,12.1%
same,Total cholesterol: Reduction in comparison with the model batch,P-407 model,5.7%
same,HDL-C level change versus model batch (↑ increase),"P-407 model, given with ↑",(↑ 19.1%)
same,Total cholesterol: Reduction in comparison with the model batch,"P-407 model, listed as atorvastatin",5.7%
same,Triglyceride: Reduction in comparison with the model batch,"P-407 model, negative = increase",−46.3%
same,HDL-C level,[1],2.12 ± 0.41 mmol/L
same,Total cholesterol level,[1],8.20 ± 1.01 mmol/L
same,Triglyceride level,[1],9.77 ± 1.05 mmol/L
